Among the data in US4060606A (Leo Pharmaceutical Products Ltd. A/S, priority 1976, dated 1977) are IC50 values, retold here.

Values after ≈ are worked out from the molar mass of the structure shown.

Common to all, as to assay: In vitro antibacterial activity, concentrations required for 50% inhibition
What all share (format): cell-based

For assay [1], the system named is Bacillus subtilis Leo KA3. The note with it: LEOKA3. The source says:
(§1) Now, however, it has been found, that the compounds of the present invention both in vitro and in vivo show interesting antimicrobial and pharmacokinetic properties. Thereby the compounds of the invention can be used in the treatment of bacterial infections in humans and animals.

Assay [2] concerns Staph. aureus Leo CC 178B. As to conditions: Staphylococcus aureus, LEOCC178B.
From the text: as §1

A further assay has as its system Strep. pyogenes Leo EC. The note with it: Streptococcus pyogenes.
From the text: as §1

In another assay the test system is Strep. species Leo EG2.
From the text: as §1

In assay [3] the test system is Bacteroides fragilis Leo JA2. As to conditions: LEOJA2.
From the text: as §1

Take `CC(C)=CCC/C(C(=O)O)=C1/[C@@H]([S+]([O-])C(C)C)C[C@@]2(C)[C@H]1C[C@@H](O)[C@H]1[C@@]3(C)CC[C@@H](O)[C@@H](C)[C@@H]3CC[C@@]12C` (stereo partly drawn) [Example 35, 16-deacetoxy-16β-isopropylsulfinylfusidic acid]: the concentration for half-maximal inhibition (IC50) in assay [1] was 0.4 µg/mL (≈ 0.729 µM); in assay [2] it was 0.05 µg/mL (≈ 0.0911 µM); with Strep. pyogenes Leo EC, 0.2 µg/mL (≈ 0.364 µM); in the assay with Strep. species Leo EG2, 0.32 µg/mL (≈ 0.583 µM); in assay [3] it was 1.3 µg/mL (≈ 2.37 µM).

Turning to `CC(=O)O[C@H]1C[C@@]2(C)[C@@H](C[C@@H](O)[C@H]3[C@@]4(C)CC[C@@H](O)[C@@H](C)[C@@H]4CC[C@@]32C)/C1=C(\CCC=C(C)C)C(=O)O` [Fusidic acid, reference compound], the IC50 worked out at 0.2 µg/mL (≈ 0.387 µM) in assay [1]; 0.032 µg/mL (≈ 0.0619 µM) in assay [2]; 0.79 µg/mL (≈ 1.53 µM) in the assay on Strep. pyogenes Leo EC; 1.6 µg/mL (≈ 3.1 µM) in the assay with Strep. species Leo EG2; 1.6 µg/mL (≈ 3.1 µM) in assay [3].

For the compound `CCO[C@H]1C[C@@]2(C)[C@@H](C[C@@H](O)[C@H]3[C@@]4(C)CC[C@@H](O)[C@@H](C)[C@@H]4CC[C@@]32C)/C1=C(\CCC=C(C)C)C(=O)O` [Example 46, 16-Deacetoxy-16β-ethoxyfusidic acid], the IC50 in assay [1] amounted to 0.05 µg/mL (≈ 0.0995 µM); in assay [2] it was 0.025 µg/mL (≈ 0.0497 µM); with Strep. pyogenes Leo EC, 1 µg/mL (≈ 1.99 µM); in the assay on Strep. species Leo EG2, 5 µg/mL (≈ 9.95 µM); in assay [3], 1 µg/mL (≈ 1.99 µM).

`CC(C)=CCC/C(C(=O)O)=C1/[C@@H](SC(C)C)C[C@@]2(C)[C@H]1C[C@@H](O)[C@H]1[C@@]3(C)CCC(=O)[C@@H](C)[C@@H]3CC[C@@]12C` [Example 34, 3-Keto-16-deacetoxy-16β-isopropylthiofusidic acid]: the IC50 is 0.05 µg/mL (≈ 0.0942 µM) in assay [1]; 0.04 µg/mL (≈ 0.0754 µM) in assay [2]; 0.4 µg/mL (≈ 0.754 µM) with Strep. pyogenes Leo EC; 1 µg/mL (≈ 1.88 µM) in the assay with Strep. species Leo EG2; 5 µg/mL (≈ 9.42 µM) in assay [3].

Take `CCO[C@H]1C[C@@]2(C)[C@@H](CC(=O)[C@H]3[C@@]4(C)CC[C@@H](O)[C@@H](C)[C@@H]4CC[C@@]32C)/C1=C(\CCC=C(C)C)C(=O)O` [Example 75, 11-Keto-16-deacetoxy-16β-ethoxyfusidic acid]: the IC50 in assay [1] came to 0.05 µg/mL (≈ 0.0999 µM); in assay [2], 0.02 µg/mL (≈ 0.0399 µM); in the assay with Strep. pyogenes Leo EC, 1 µg/mL (≈ 2 µM); in the assay with Strep. species Leo EG2, 3.2 µg/mL (≈ 6.39 µM); in assay [3], 13 µg/mL (≈ 26 µM).

With `CC(C)=CCC/C(C(=O)O)=C1/[C@@H](OCCF)C[C@@]2(C)[C@H]1CC(=O)[C@H]1[C@@]3(C)CC[C@@H](O)[C@@H](C)[C@@H]3CC[C@@]12C` [Example 76, 11-Keto-16-deacetoxy-16β-(2'-fluoroethoxy)fusidic acid], the concentration for half-maximal inhibition (IC50) was 0.032 µg/mL (≈ 0.0617 µM) in assay [1]; 0.025 µg/mL (≈ 0.0482 µM) in assay [2]; 1.6 µg/mL (≈ 3.08 µM) in the assay on Strep. pyogenes Leo EC; 4 µg/mL (≈ 7.71 µM) in the assay on Strep. species Leo EG2; 2 µg/mL (≈ 3.86 µM) in assay [3].

As for `CC(C)CCC/C(C(=O)O)=C1/[C@@H](SC(C)C)C[C@@]2(C)[C@H]1C[C@@H](O)[C@H]1[C@@]3(C)CC[C@@H](O)[C@@H](C)[C@@H]3CC[C@@]12C` [Example 11, 16-Deacetoxy-16β-isopropylthio-24,25-dihydrofusidic acid], the IC50 in assay [1] was found to be 0.008 µg/mL (≈ 0.015 µM); in assay [2], 0.016 µg/mL (≈ 0.0299 µM); with Strep. pyogenes Leo EC, 0.04 µg/mL (≈ 0.0748 µM); with Strep. species Leo EG2 it was 0.1 µg/mL (≈ 0.187 µM); in assay [3], 4 µg/mL (≈ 7.48 µM).

Consider `CC(C)CCC/C(C(=O)O)=C1/[C@@H]([S+]([O-])C(C)C)C[C@@]2(C)[C@H]1C[C@@H](O)[C@H]1[C@@]3(C)CC[C@@H](O)[C@@H](C)[C@@H]3CC[C@@]12C` (stereo partly drawn) [Example 42, 16-Deacetoxy-16β-isopropylsulfinyl-24,25-dihydrofusidic acid], for which the concentration for half-maximal inhibition (IC50) is 0.16 µg/mL (≈ 0.29 µM) in assay [1]; 0.04 µg/mL (≈ 0.0726 µM) in assay [2]; 0.16 µg/mL (≈ 0.29 µM) with Strep. pyogenes Leo EC; 0.5 µg/mL (≈ 0.908 µM) in the assay with Strep. species Leo EG2; 1.6 µg/mL (≈ 2.9 µM) in assay [3].

Turning to `CC(C)=CCC/C(C(=O)O)=C1/[C@@H](SC(C)C)C[C@@]2(C)[C@H]1C[C@@H](O)[C@H]1[C@@]3(C)CC[C@@H](O)[C@@H](C)[C@@H]3CC[C@@]12C` [Example 1, 16-Deacetoxy-16β-isopropylthiofusidic acid], the IC50 came to 0.02 µg/mL (≈ 0.0375 µM) in assay [1]; 0.032 µg/mL (≈ 0.0601 µM) in assay [2]; 0.2 µg/mL (≈ 0.375 µM) with Strep. pyogenes Leo EC; 1 µg/mL (≈ 1.88 µM) in the assay on Strep. species Leo EG2; 5 µg/mL (≈ 9.38 µM) in assay [3].

Consider `CC(C)CCC/C(C(=O)O)=C1/[C@@H](SC(C)C)C[C@@]2(C)[C@H]1CC(=O)[C@H]1[C@@]3(C)CC[C@@H](O)[C@@H](C)[C@@H]3CC[C@@]12C` [Example 33, 11-Keto-16-deacetoxy-16β-isopropylthio-24,25-dihydrofusidic acid], for which the 50% inhibitory concentration (IC50) in assay [1] came to 0.05 µg/mL (≈ 0.0938 µM); in assay [2] it was 0.04 µg/mL (≈ 0.0751 µM); in the assay on Strep. pyogenes Leo EC, 0.32 µg/mL (≈ 0.601 µM); in the assay with Strep. species Leo EG2, 0.79 µg/mL (≈ 1.48 µM); in assay [3], 2 µg/mL (≈ 3.75 µM).

Consider `CC(C)=CCC/C(C(=O)O)=C1/[C@@H](OCC(F)(F)F)C[C@@]2(C)[C@H]1C[C@@H](O)[C@H]1[C@@]3(C)CC[C@@H](O)[C@@H](C)[C@@H]3CC[C@@]12C` [Example 48, 16-deacetoxy-16β-(2',2',2'-trifluoroethoxy)fusidic acid], for which the IC50 turned out to be 0.02 µg/mL (≈ 0.0359 µM) in assay [1]; 0.016 µg/mL (≈ 0.0287 µM) in assay [2]; 0.5 µg/mL (≈ 0.898 µM) in the assay on Strep. pyogenes Leo EC; 1 µg/mL (≈ 1.8 µM) in the assay on Strep. species Leo EG2; 32 µg/mL (≈ 57.5 µM) in assay [3].

On to `CC(C)=CCC/C(C(=O)O)=C1/[C@@H](OC(CF)CF)C[C@@]2(C)[C@H]1C[C@@H](O)[C@H]1[C@@]3(C)CC[C@@H](O)[C@@H](C)[C@@H]3CC[C@@]12C` [Example 52], for which the half-maximal inhibitory concentration (IC50) was found to be 0.04 µg/mL (≈ 0.0724 µM) in assay [1]; 0.025 µg/mL (≈ 0.0452 µM) in assay [2]; 0.5 µg/mL (≈ 0.905 µM) in the assay on Strep. pyogenes Leo EC; 3.2 µg/mL (≈ 5.79 µM) in the assay with Strep. species Leo EG2; 0.63 µg/mL (≈ 1.14 µM) in assay [3].

Regarding `CC(C)=CCC/C(C(=O)O)=C1/[C@@H](OCCF)C[C@@]2(C)[C@H]1C[C@@H](O)[C@H]1[C@@]3(C)CC[C@@H](O)[C@@H](C)[C@@H]3CC[C@@]12C` [Example 50, 16-Deacetoxy-16β-(2'-fluoroethoxy)fusidic acid], the 50% inhibitory concentration (IC50) was determined as 0.05 µg/mL (≈ 0.096 µM) in assay [1]; 0.02 µg/mL (≈ 0.0384 µM) in assay [2]; 0.63 µg/mL (≈ 1.21 µM) with Strep. pyogenes Leo EC; 2.5 µg/mL (≈ 4.8 µM) in the assay on Strep. species Leo EG2; 0.32 µg/mL (≈ 0.615 µM) in assay [3].

For the compound `CC(C)=CCC/C(C(=O)O)=C1/[C@@H](SC(C)C)C[C@@]2(C)[C@H]1CC(=O)[C@H]1[C@@]3(C)CC[C@@H](O)[C@@H](C)[C@@H]3CC[C@@]12C` [Example 32, 11-Keto-16-deacetoxy-16β-isopropylthiofusidic acid], the 50% inhibitory concentration (IC50) in assay [1] stood at 0.02 µg/mL (≈ 0.0377 µM); in assay [2], 0.02 µg/mL (≈ 0.0377 µM); with Strep. pyogenes Leo EC, 0.2 µg/mL (≈ 0.377 µM); in the assay on Strep. species Leo EG2, 0.63 µg/mL (≈ 1.19 µM); in assay [3], 3.2 µg/mL (≈ 6.03 µM).
